The values that follow come from PubChem BioAssay AID1996.

Each structure is given as a SMILES string. Values after ≈ are worked out from the molar mass of the structure shown.

The conditions of this data set: buffer; pH 7.4; 200.0 µM.
The term kinetic solubility denotes solubility judged after dilution from a stock solution rather than from solid. As to `CCOc1ccc(C(=O)OCC(=O)NC2CCCC2)cc1OCC`, the kinetic solubility was 17.7 µg/mL (≈ 52.8 µM). As for `Fc1ccccc1NC(=S)NCc1ccccc1`, the solubility (kinetic) came out at 36.1 µg/mL (≈ 139 µM). Turning to `Cc1ccc(S(=O)(=O)N2CCOCC2)cc1C(=O)NC1=NCCS1`, the solubility (kinetic) was more than 55.4 µg/mL.

The molecule `O=C(COC(=O)c1ccc([N+](=O)[O-])s1)NNC(=O)c1ccccc1` came in with a kinetic solubility of more than 52.4 µg/mL. Under `C/C=C/C(=O)N(CC)c1ccccc1C` stands 17.7 µg/mL (≈ 87.1 µM); under `CCc1ccccc1NC(=O)NC(C)c1ccc2c(c1)OCO2` (centres undefined), 0.6 µg/mL (≈ 1.92 µM). The molecule `Cc1onc(C(=O)Nc2ccccc2C(F)(F)F)c1[N+](=O)[O-]` yielded a solubility (kinetic) of more than 47.3 µg/mL.

As to `NC(=O)c1ccc[n+](CC(=O)c2ccc(Br)cc2)c1.[Br-]`, the kinetic solubility is more than 60 µg/mL. Take `COc1ccc(C(=O)NCC(=O)N2CCNC(=O)C2)cc1OC`: the kinetic solubility is more than 48.2 µg/mL.

As to `O=[N+]([O-])c1ccc(Nc2cccc(F)c2)nc1`, the kinetic solubility turned out to be 13.4 µg/mL (≈ 57.5 µM).

As to `Cc1ccc2c(c1)C(c1ccccc1)N(C(=O)CC(C)C)CC(=O)N2` (centres undefined), the kinetic solubility was more than 50.5 µg/mL. For `COc1ccc(C(=O)NCC(=O)OCC(=O)N2CC(C)OC(C)C2)cc1OC` (centres undefined), the kinetic solubility was more than 59.2 µg/mL. With `COc1cc(S(=O)(=O)NCc2ccc3c(c2)OCO3)c(OC)cc1C`, the solubility (kinetic) worked out at 53.9 µg/mL (≈ 148 µM). `CC(C(=O)Nc1ccc(S(=O)(=O)N2CCCC2)cc1)N(C)CC(=O)Nc1cccc(F)c1` (centres undefined) gave a solubility (kinetic) of 28.7 µg/mL (≈ 62 µM). Under `Cc1noc(C)c1C(=O)NCc1ccccc1F` stands 34.7 µg/mL (≈ 140 µM); under `O=C(NCCc1ccccc1)c1ccc2c(c1)OCCCO2`, 39.8 µg/mL (≈ 134 µM); under `S=C(NCCc1cccc(Cl)c1)NC1CCCCC1`, 10.5 µg/mL (≈ 35.4 µM). `Cc1ccc2c(c1)N(Cc1ccc([N+](=O)[O-])cc1)C=NS2(=O)=O` gave a solubility (kinetic) of 34.9 µg/mL (≈ 105 µM). In turn, `O=[N+]([O-])c1ccc(CSc2ncnc3ccccc23)cc1` came in with a kinetic solubility of 5.6 µg/mL (≈ 18.8 µM). Against the preceding molecule, the solubility kinetic is about 6.2-fold lower. With `CC(=O)Nc1ccc(NC(C)=O)c(NC2OCC(O)C(O)C2O)c1` (centres undefined) the figure was more than 50.9 µg/mL; with `CC(SCC(=O)O)c1nc2ccccc2[nH]1` (centres undefined), more than 35.4 µg/mL; with `Cc1cc(C)c(NC(=O)CCCN2CCCC2)c(C)c1`, more than 41.2 µg/mL. With `Cl.O=S(=O)(c1ccc(F)cc1)N1CCCNCC1` the figure was more than 44.2 µg/mL; with `Cc1ccc(C(C)NC(=S)NC2CCCCC2)c(C)c1` (centres undefined), 9.1 µg/mL (≈ 31.3 µM). `O=C(O)/C=C/C(=O)N1CCc2ccccc21` returned a solubility (kinetic) of more than 32.6 µg/mL.

Regarding `C[C@H](NC(=O)c1ccc(C(C)(C)C)cc1)C(=O)N1CCN(C/C=C/c2ccccc2)CC1`, the solubility (kinetic) came to 21.6 µg/mL (≈ 49.8 µM). With `Cc1cc(C)c(OCC(=O)N2CC=C(c3ccccc3)CC2)c(C)c1` the figure was 13 µg/mL (≈ 38.8 µM); with `CC1(C)CNc2cc(N)ccc2S1`, 26.3 µg/mL (≈ 135 µM); with `COc1ccc(NC(=S)NC(=O)C2CCCCC2)cc1`, less than 0.3 µg/mL. Molecule `CC(C)C(=O)Nc1ccc(Oc2ccc3c(c2)C(=O)NC3=O)cc1` displayed a kinetic solubility of less than 0.3 µg/mL. With `O=C1CSC(c2cccnc2)N1c1ccc(Cl)cc1` (centres undefined) the figure was more than 43.6 µg/mL. Under `O=C1CSC(=Nc2ccc(Cl)cc2)N1Cc1ccco1` stands 10.9 µg/mL (≈ 35.5 µM); under `O=S(=O)(Nc1ccccc1N1CCOCC1)c1cccs1`, 4.2 µg/mL (≈ 12.9 µM).

The molecule `CC(C)=CC(=O)Nc1ccc(S(=O)(=O)Nc2ccccn2)cc1` registered a kinetic solubility of 46.2 µg/mL (≈ 139 µM). This solubility kinetic is about 11-fold higher than that of the molecule before.

In turn, `CCC(CC)C(=O)N1CCN(Cc2nc3ccccc3c(=O)[nH]2)CC1` gave a kinetic solubility of more than 51.4 µg/mL. Under `CCOc1ccc(C(=O)NCc2ccco2)cc1OCC` stands 22.5 µg/mL (≈ 77.8 µM); under `O=C(CSc1ccc(-c2cccnc2)nn1)N1CCCCC1`, more than 47.2 µg/mL; under `C=C(C)CNC(=S)NNC(=O)c1ccncc1`, more than 37.5 µg/mL. For the molecule `COc1ccc2c(c1)C(=C(C#N)C#N)C(=O)N2CCc1ccccc1`, the solubility (kinetic) was found to be 3.4 µg/mL (≈ 10.3 µM). `O=C(COC(=O)c1cc2ccccc2cc1O)NC1CCCCC1` registered a solubility (kinetic) of 5.9 µg/mL (≈ 18 µM). Compared with the last molecule, the solubility kinetic is about 1.7-fold higher.

As for `Cc1noc(C)c1COC(=O)[C@@H](NC(=O)c1ccccc1)C(C)C`, the solubility (kinetic) is more than 49.6 µg/mL.

In the case of `O=C(CSc1ccccc1)Nc1ccc(N2CCOCC2)c(F)c1`, the solubility (kinetic) is 2.7 µg/mL (≈ 7.79 µM). For `CC(C)c1ccc(NC(=O)NCc2ccc3c(c2)OCO3)cc1`, the solubility (kinetic) was less than 0.3 µg/mL. With `O=C(c1cccs1)N1CCN=C1SCc1ccc(Cl)cc1` the figure was less than 0.4 µg/mL; with `COc1ccc(C)cc1NC(=O)C1CCCCN1S(=O)(=O)c1ccccc1` (centres undefined), 12 µg/mL (≈ 30.9 µM). Regarding `O=C(COC(=O)c1cnc(Cl)c(Cl)c1)Nc1cccc(S(=O)(=O)N2CCOCC2)c1`, the solubility (kinetic) is 38.9 µg/mL (≈ 82 µM). Compared with the last molecule, the solubility kinetic is about 3.2-fold higher. On to `COC(=O)c1scc(C)c1NC(=O)/C=C/C(=O)O`, for which the kinetic solubility was 38.8 µg/mL (≈ 144 µM). Under `O=c1[nH]c(=S)[nH]c2sc3c(c12)CCCCCC3` stands 26.2 µg/mL (≈ 98.4 µM); under `Nc1nc(NCCc2ccccc2)nc(NCCO)c1[N+](=O)[O-]`, 46.3 µg/mL (≈ 145 µM); under `Cc1ccc(S(=O)(=O)c2cc3ccccc3nc2N)cc1`, 0.5 µg/mL (≈ 1.68 µM). Under `CN(C(=O)CCl)C1CCCc2ccccc21` (centres undefined) stands 32.1 µg/mL (≈ 135 µM); under `Cc1cc(C(=O)COc2ccccc2C(N)=O)c(C)n1C1CC1`, 7 µg/mL (≈ 22.4 µM). For the molecule `O=C(Nc1ccccc1C(=O)N1CCCCC1)NC1CCCCC1`, the kinetic solubility was more than 49.4 µg/mL.

Turning to `CCN=C1S/C(=C\c2cc(Cl)c(OC)c(OC)c2)C(=O)N1CC`, the solubility (kinetic) came to 0.8 µg/mL (≈ 2.25 µM). For the molecule `CSCCC(NC(=O)c1cccc(C)c1)C(=O)NCc1cccs1` (centres undefined), the solubility (kinetic) is more than 54.4 µg/mL.

Molecule `Cc1cccc(N2CCN(C(=O)NC3CCCCC3)CC2C)c1` (centres undefined) displayed a solubility (kinetic) of more than 47.3 µg/mL. In turn, `COc1ccccc1CNc1ccc(Br)cn1` showed a solubility (kinetic) of 11.6 µg/mL (≈ 39.6 µM). In turn, `COc1cccc(S(=O)(=O)NCc2ccc(C(=O)N3CCN(C)CC3)cc2)c1` returned a solubility (kinetic) of more than 60.5 µg/mL.

In the case of `O=C(O)c1ccc(/C=N/NC(=S)NCCN2CCOCC2)cc1`, the solubility (kinetic) was more than 50.5 µg/mL. Under `O=C(O)c1ccc2c(c1)C(=O)N(c1ccc(Nc3ccccc3)cc1)C2=O` stands 51.6 µg/mL (≈ 144 µM); under `Cc1ccsc1C(=O)N1CC=C(c2ccccc2)CC1`, more than 42.5 µg/mL.

The molecule `CCc1cccc2c1NC(=O)C2(O)N1CCCC(C)C1` (centres undefined) showed a solubility (kinetic) of 38.5 µg/mL (≈ 140 µM). Under `O=Nc1c(O)n(Cc2ccccc2)c2ccccc12` stands more than 37.8 µg/mL; under `Cc1ccn2c(=O)c(C(=O)O)cnc2c1`, more than 30.6 µg/mL; under `Cc1ccc(NC(=O)c2ccccc2NC(=O)c2cccs2)cc1`, less than 0.4 µg/mL.

Turning to `Cc1cc(NC(=O)COc2ccc(C)c(C)c2)no1`, the solubility (kinetic) is 0.7 µg/mL (≈ 2.69 µM).

The molecule `COc1ccc(CCNC(=O)c2ccccc2)cc1` gave a solubility (kinetic) of more than 38.3 µg/mL.

Molecule `COC(=O)N1c2ccccc2C=Cc2ccccc21` showed a kinetic solubility of more than 37.7 µg/mL. On to `O=C(O)CC(Sc1n[nH]c(=S)s1)C(=O)O` (centres undefined), for which the kinetic solubility was more than 39.9 µg/mL. Under `Cc1ccc(CNC(=O)CSc2ccsc2[N+](=O)[O-])cc1` stands 5.3 µg/mL (≈ 16.4 µM); under `Cl.O=C(NCCN1CCCC1)C(c1ccccc1)c1ccccc1`, 48.9 µg/mL; under `O=C(CNC(=O)c1ccco1)OCc1ccccc1F`, more than 41.6 µg/mL. `O=C(OCC(=O)N1CCOCC1)c1cc(=O)[nH]c2ccccc12` showed a kinetic solubility of more than 47.4 µg/mL. With `O=C(NC(=S)NC1CCCCC1)c1ccc(Cl)cc1` the figure was less than 0.3 µg/mL; with `O=C(O)C1CSC(c2ccc(O)c([N+](=O)[O-])c2)N1` (centres undefined), more than 40.5 µg/mL; with `COc1ccc(NC(=O)c2ccc(NC(=O)CN3CCC(C(N)=O)CC3)cc2)cc1`, 8.1 µg/mL (≈ 19.7 µM).

With `COc1ccccc1NC(=O)C[n+]1ccccc1C.[Cl-]`, the solubility (kinetic) was found to be 41 µg/mL.

`COc1ccc(/C=C/C(=O)ONC2=NCCCCC2)cc1OC`: the solubility (kinetic) was more than 47.8 µg/mL. Under `NC(Cc1c[nH]c2ccccc12)C(=O)NCc1ccccc1` (centres undefined) stands 39.1 µg/mL (≈ 133 µM); under `COc1cccc(CNC(=S)Nc2ccc(Cl)cc2C)c1`, 5.5 µg/mL (≈ 17.1 µM); under `CC(C)N(C(=O)COC(=O)c1ccc([N+](=O)[O-])cc1)c1ccccc1`, 1.1 µg/mL (≈ 3.21 µM). Under `CCN1CC(CN(C)Cc2nc(Cc3ccccc3)no2)CC1=O` (centres undefined) stands more than 49.3 µg/mL; under `COc1cccc(NC(=O)COC(=O)Cc2ccc(Cl)cc2)c1`, more than 50.1 µg/mL; under `Cc1[nH]c(=O)c(Cc2ccccc2)c(O)c1C#N`, more than 36 µg/mL.

Take `O=C(Nc1cccc(Cl)c1)Nc1sccc1-c1nc2ccccc2s1`: the kinetic solubility amounted to 4.5 µg/mL (≈ 11.7 µM). The molecule `O=C(O)c1ccc(S(=O)(=O)N(Cc2cccs2)CC2CCCO2)cc1` (centres undefined) yielded a solubility (kinetic) of more than 57.2 µg/mL.

In turn, `O=C1CSC(=S)N1c1cccc(Cl)c1` gave a kinetic solubility of 0.7 µg/mL (≈ 2.87 µM). With `O=S1(=O)C=C(SCc2ccc(F)cc2)Nc2ccccc21` the figure was 22.5 µg/mL (≈ 70 µM); with `CS(=O)(=O)N(CC(=O)N1CCOCC1)c1cccc(F)c1`, 40.7 µg/mL (≈ 129 µM); with `Cc1cc(OCC(=O)Nc2ccccc2C)no1`, more than 36.9 µg/mL.

In turn, `O=C(Nc1ccccc1Cl)C1Cc2ccccc2O/C1=N\O` (centres undefined) showed a kinetic solubility of more than 47.5 µg/mL. With `C=CCSc1nc(C)cc(C(=O)OCC)c1C#N` the figure was 8.6 µg/mL (≈ 32.8 µM); with `Cn1cnc2cc(NCc3ccccc3Cl)ccc21`, 34.7 µg/mL (≈ 128 µM). Under `COc1cc(NC(=O)C2C3CCC(O3)C2C(=O)O)cc(OC)c1` (centres undefined) stands more than 48.2 µg/mL; under `Cl.c1cc(CNC2C3CC4CC(C3)CC2C4)ccn1` (centres undefined), 33.7 µg/mL. Turning to `COc1ccc(OC)c(NC(=O)Nc2cccnc2)c1`, the solubility (kinetic) was more than 41 µg/mL. In turn, `CCOC(=O)C1CCCN(C(=O)COC(=O)c2cccs2)C1` (centres undefined) gave a solubility (kinetic) of 47.6 µg/mL (≈ 146 µM). For the molecule `CSc1ccccc1NC(=O)COc1ccccc1C`, the solubility (kinetic) was less than 0.6 µg/mL.

Consider `Cc1cc(C)nc(N2CCCC(C(=O)Nc3ccc(F)cc3)C2)n1` (centres undefined), for which the solubility (kinetic) was 1.2 µg/mL (≈ 3.65 µM). Turning to `CC(=O)c1sc(NC(C)c2ccccc2)nc1C` (centres undefined), the solubility (kinetic) came out at 30.4 µg/mL (≈ 117 µM).

Turning to `Cc1ccc(CSC2=Nc3ccccc3C3=NC(=O)CN23)cc1`, the kinetic solubility turned out to be 4.9 µg/mL (≈ 15.2 µM). Against the preceding molecule, the solubility kinetic is about 6.2-fold lower. With `O=C(CN1C(=O)NC2NC(=O)NC21)NC1CCCCC1` (centres undefined), the solubility (kinetic) is more than 42.2 µg/mL. With `O=C(Nc1nc2ccccc2s1)c1ccccc1[N+](=O)[O-]` the figure was 2.9 µg/mL (≈ 9.69 µM). With `Cc1cc(/C=N/NC(N)=O)c(C)n1C1CCCCC1` the figure was more than 39.4 µg/mL.
